Data: ChEMBL document CHEMBL2028040, “Malaria Box”

What was measured:
[1] = MMV: Cytotoxicity against human fibroblasts (MRC-5) cells.; conditions: MRC-5 cells (human fibroblasts)
Plasmodium falciparum [2] = test: MMV: Inhibition of Plasmodium falciparum 3D7 (EC50).; type: functional, organism-based
[3] = test system: Trypanosoma brucei rhodesiense; test: MMV: Inhibition of Trypanosoma brucei rhodesiense (STIB 900) (HAT in vitro).; type: functional, organism-based
Leishmania infantum = test: MMV: Inhibition of Leishmania infantum (MHOM/MA/BE/67) in vitro.; type: functional, organism-based
[4] = test system: Trypanosoma brucei brucei; test: MMV: Inhibition of Trypanosoma brucei brucei (Squib 427) (HAT in vitro).; type: functional, organism-based
Trypanosoma cruzi = test: MMV: Inhibition of Trypanosoma cruzi (Tulahuen C4 LacZ) (Chagas in vitro).; type: functional, organism-based
Plasmodium falciparum [5] = test: MMV: Inhibition of Plasmodium falciparum 3D7 at 5uM compound concentration.; type: functional

EC50 (Plasmodium falciparum [2]) [µM]	IC50 [3] [µM]	IC50 (Leishmania infantum) [µM]	IC50 [4] [µM]	IC50 (Trypanosoma cruzi) [µM]	SMILES	IC50 [1] [µM]	inhibition at 5 µM (Plasmodium falciparum [5]) [%]
1.23	0.223	1.01	0.259	1.01	COc1ccc(C2c3ccc4ccccc4c3Oc3ncn(CCCN(C)C)c(=N)c32)cc1 (centres undefined)	3.49	–
0.939	11.9	17.3	16	13.5	COC(=O)c1ccc(Cl)c2c1C1C=CCC1C(c1cccc3ccccc13)N2 (centres undefined)	> 32	–
1.79	1.8	5.38	15.5	4.2	COc1ccc(C2c3ccc4ccccc4c3Oc3ncn(CCCn4ccnc4)c(=N)c32)cc1OC (centres undefined)	10.1	–
0.891	28.9	> 32	> 32	> 32	O=C(NCc1ccco1)C1CCN(S(=O)(=O)c2ccc(Cl)cc2)CC1	> 32	94
0.969	5.08	16	4.41	15	COc1ccc2nc(C)cc(Nc3cccc(O)c3)c2c1	> 32	98
1.2	0.964	2.52	3.52	2.54	CCOc1ccc(CN2CCN(CC(O)COc3ccc(OCC(O)CN4CCN(Cc5ccc(OCC)cc5)CC4)cc3)CC2)cc1 (centres undefined)	10.7	97
0.373	3.6	12.7	4	13.2	COc1ccc(CCn2c(=N)c(C(=O)NCc3cccnc3)cc3c(=O)n4cccc(C)c4nc32)cc1	> 32	–
1.79	> 32	> 32	> 32	> 32	CC(=O)NCCc1nc2ccccc2n1Cc1ccc(C(C)C)cc1	> 32	97
1.14	10.7	> 32	10.9	24.5	COc1nc(Nc2ccc(C(C)C)cc2)nc(OC)n1	> 32	88
1.19	4.19	16.1	7.4	16.2	CCOC(=O)c1cnc2ccc(Cl)cc2c1NCCCN(C)C	> 32	98
0.415	7.17	> 32	> 32	> 32	O=C1c2ccccc2C2=Nc3ccccc3SC(c3cccc(F)c3)C12 (centres undefined)	> 32	94
1.12	> 32	> 32	> 32	> 32	Cc1ccccc1OCCSc1nc2ccc(NC(=O)c3ccccc3)cc2s1	> 32	93
0.947	> 32	25.4	> 32	> 32	Cc1ccc(Cn2c(N3CCC(C(=O)NCc4cccs4)CC3)nc3ccccc32)cc1	> 32	73
1.17	3.86	3.06	4.12	5.96	Cc1ccc2nc(C)cc(Nc3cccc(C(F)(F)F)c3)c2c1	28.9	98
0.756	> 32	17.3	> 32	24.7	CC1CC(C)CN(C(=O)c2ccc(Cl)cc2Cl)C1 (centres undefined)	> 32	95
0.538	16.3	19	> 32	13.6	CCCCc1ccc(NS(=O)(=O)c2cc3c4c(c2)CCN4C(=O)CC3)cc1	5.61	96
0.695	> 32	> 32	> 32	9.02	CCn1c2c(c(=N)c3c1CCC3)CCCC2	32	77
1.32	16.1	> 32	16.1	14.9	CCOc1ccccc1CNC(=O)C1c2ccccc2C(=O)N(CC(C)C)C1c1cccs1 (centres undefined)	> 32	97
0.995	27.4	> 32	> 32	> 32	O=c1nc(C=Cc2ccc(Cl)cc2)oc2ccccc12	> 32	76
0.939	> 32	> 32	> 32	> 32	O=C(NCc1ccco1)C1CCN(S(=O)(=O)c2ccc(Br)cc2)CC1	> 32	93
1.24	3.83	> 32	4.28	> 32	COc1ccc2c(c1OC)C(=O)N1c3ccccc3N=C(c3ccc(C)cc3)CC21 (centres undefined)	> 32	93
0.632	> 32	> 32	> 32	> 32	COc1ccc(CCNC(=O)c2cc(S(=O)(=O)N3CC(C)CC(C)C3)ccc2Sc2ccc(F)cc2)cc1OC (centres undefined)	> 32	97
1.06	0.976	1.59	3.45	1.25	CCOc1ccc(Nc2c3ccccc3nc3ccccc23)cc1	8.44	97
0.106	> 32	18.4	> 32	> 32	CCCCCCOC(=O)C1=C(C)NC(=O)NC1c1ccccc1F (centres undefined)	> 32	95
1.43	4.06	16.2	18.4	8.64	COc1cc(OC)cc(N2C(=O)N(Cc3ccc(C(C)(C)C)cc3)c3ccccc3S2(=O)=O)c1	> 32	97
1.43	14.6	16	> 32	27.5	CCCN(CCC)CCCNC(=O)c1cc2c(-c3ccc(OC)c(OC)c3)nn(C)c2s1	> 32	98
1.29	> 32	> 32	> 32	> 32	C=CCc1c(C)nc2ccccc2c1O	> 32	85
0.385	> 32	> 32	> 32	> 32	Nc1ccn([C@@H]2O[C@H](CO)[C@@H](O)[C@H]2O)c(=O)n1 [CYTIDINE]	> 32	–

SMILES	EC50 (Plasmodium falciparum [2]) [µM]	IC50 [3] [µM]	IC50 (Leishmania infantum) [µM]	IC50 [4] [µM]	IC50 (Trypanosoma cruzi) [µM]	IC50 [1] [µM]	inhibition at 5 µM (Plasmodium falciparum [5]) [%]
CN(N=O)C1=C(NC2CCCCC2)C(=O)c2ccccc2C1=O	1.19	4.61	> 32	16.5	12.8	> 32	–
COc1ccc(-c2nc3cc(Cc4ccc5[nH]c(-c6ccc(OC)cc6)nc5c4)ccc3[nH]2)cc1	0.176	< 0.125	4.06	0.179	< 0.125	4.76	98
